The target in assay [1] is T1, Peroxisome proliferator-activated receptor gamma (Homo sapiens, UniProt P37231).
T1 sequence (P37231 whole entry): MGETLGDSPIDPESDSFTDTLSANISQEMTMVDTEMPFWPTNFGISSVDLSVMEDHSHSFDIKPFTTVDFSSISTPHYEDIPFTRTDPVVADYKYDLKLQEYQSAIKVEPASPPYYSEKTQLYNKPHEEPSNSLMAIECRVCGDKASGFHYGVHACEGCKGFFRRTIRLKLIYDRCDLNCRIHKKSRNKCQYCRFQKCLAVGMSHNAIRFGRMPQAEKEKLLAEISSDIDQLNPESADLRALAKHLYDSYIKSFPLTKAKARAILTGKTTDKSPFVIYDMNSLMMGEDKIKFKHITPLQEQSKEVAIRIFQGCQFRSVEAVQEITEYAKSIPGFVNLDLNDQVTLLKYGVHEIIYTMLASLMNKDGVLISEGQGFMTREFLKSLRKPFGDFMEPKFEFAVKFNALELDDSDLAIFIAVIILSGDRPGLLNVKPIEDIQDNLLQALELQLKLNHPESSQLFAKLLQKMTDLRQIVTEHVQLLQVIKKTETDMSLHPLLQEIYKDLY
The class given is functional.

The target in assay [2] is T2, Peroxisome proliferator-activated receptor alpha (Homo sapiens, UniProt Q07869).
T2 sequence (Q07869 whole entry): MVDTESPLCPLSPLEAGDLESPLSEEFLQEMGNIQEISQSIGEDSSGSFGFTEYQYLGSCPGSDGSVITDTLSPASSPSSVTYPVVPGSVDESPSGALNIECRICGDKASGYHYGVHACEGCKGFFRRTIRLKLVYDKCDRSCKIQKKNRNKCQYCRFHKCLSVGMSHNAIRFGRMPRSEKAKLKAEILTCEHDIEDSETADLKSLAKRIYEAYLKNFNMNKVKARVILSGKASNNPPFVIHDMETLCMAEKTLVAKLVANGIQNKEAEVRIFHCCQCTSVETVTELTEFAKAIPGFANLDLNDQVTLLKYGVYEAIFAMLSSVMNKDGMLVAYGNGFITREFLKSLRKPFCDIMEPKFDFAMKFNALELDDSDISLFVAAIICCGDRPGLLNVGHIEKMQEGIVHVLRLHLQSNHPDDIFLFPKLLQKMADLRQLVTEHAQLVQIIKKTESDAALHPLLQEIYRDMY
The class given is functional.

Assay [3] deals with T2, Peroxisome proliferator-activated receptor alpha.
The target in assay [4] is T3, Peroxisome proliferator-activated receptor delta (Homo sapiens, UniProt Q03181).
T3 sequence (Q03181 whole entry): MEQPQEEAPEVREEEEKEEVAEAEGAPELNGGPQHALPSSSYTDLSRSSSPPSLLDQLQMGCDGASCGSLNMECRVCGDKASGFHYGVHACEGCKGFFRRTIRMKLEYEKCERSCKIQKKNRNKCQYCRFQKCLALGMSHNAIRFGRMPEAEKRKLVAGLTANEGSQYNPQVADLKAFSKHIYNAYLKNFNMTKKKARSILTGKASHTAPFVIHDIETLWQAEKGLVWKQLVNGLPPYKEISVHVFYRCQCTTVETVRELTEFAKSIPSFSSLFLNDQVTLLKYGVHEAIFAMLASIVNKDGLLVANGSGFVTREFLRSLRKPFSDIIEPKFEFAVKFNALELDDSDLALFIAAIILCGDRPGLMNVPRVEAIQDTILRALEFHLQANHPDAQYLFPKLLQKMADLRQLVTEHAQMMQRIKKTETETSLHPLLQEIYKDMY

The species named for assay [5] is Mus musculus. The experiment in a line: animal or person. The class given is functional.
For assay [6], the species on record is Mus musculus. The class given is functional.
The species named for assay [7] is Mus musculus. Briefly: animal or person. The class given is functional. To be noted: Serum.
In assay [8] the target is T4, Peroxisome proliferator-activated receptor delta (Homo sapiens) (UniProt Q03181).
T4 sequence (whole entry): T3 sequence (Q03181 whole entry)

For assay [9], the species on record is Mus musculus. The experiment in a line: animal or person. The class given is functional. This is another data set of the same source.
Assay [10] addresses T4, Peroxisome proliferator-activated receptor delta (Homo sapiens). The source holds these as a separate data set.
For assay [11], the target named is T2, Peroxisome proliferator-activated receptor alpha. The class given is functional. This is another data set of the same source.
Assay [12] addresses T5, Peroxisome proliferator-activated receptor gamma (Homo sapiens) (UniProt P37231).
T5 sequence (whole entry): T1 sequence (P37231 whole entry)

Each structure is given as a SMILES string. Active and inactive are the calls of the source. The rule behind the calls is not given here.

For orientation: EC50 means the concentration that produces a half-maximal response. Higher therefore signals a need for much substance. One may read the IC50 as the concentration at which inhibition is half-maximal. A high value points to weaker potency. Usually ED50 stands for the dose that gives a 50% effect, or the effect in half of the subjects. Low values mean an effect at a small dose, high ones a need for a large dose.

On to `CCCCCCn1c(CCc2ccc(OC(C)(C)C(=O)O)cc2)nn(Cc2cccc(OC)c2)c1=O`, for which the EC50 was 2600 nM in assay [1] and 2200 nM in [2].
As for `CCCn1c(CCCc2ccc(OC(C)(C)C(=O)O)cc2)nn(C(C)c2ccccc2)c1=O` (configuration not stated), the concentration for half-maximal inhibition (IC50) in [3] amounted to 220 nM; in assay [4] it was 1500 nM. The same molecule came in with an EC50 in [2] of 220 nM.
As for `CCCn1c(CCc2ccc(OC(C)(C)C(=O)O)cc2)nn(Cc2ccc(C)cc2)c1=O`, the EC50 in assay [1] came out at 2900 nM; in assay [2] it was 2800 nM.
For the molecule `CC(C)OC(=O)C(C)(C)Oc1ccc(C(=O)c2ccc(Cl)cc2)cc1` [FENOFIBRATE], the ED50 came out at 110 mg/kg in the assay listed under Mus musculus [5] and 79 mg/kg in the assay filed under Mus musculus [7]. The Increase in the assay filed under Mus musculus [6] was 120%.
On to `Cc1ccc(Cn2nc(CCCc3ccc(OC(C)(C)C(=O)O)cc3)n(CCO)c2=O)cc1`, for which the IC50 was found to be 27 nM in assay [3] and 4100 nM in [4]. This molecule displayed an EC50 in [2] of 88 nM.
Molecule `Cc1ccc(Cn2nc(CCCc3ccc(OC(C)(C)C(=O)O)cc3)n(CC(=O)O)c2=O)cc1` displayed an IC50 in assay [3] of 960 nM. Besides, the NB result in assay [8] was “inactive”. For the same molecule, the EC50 in assay [2] is 2700 nM.
As to `CCCn1c(CCCc2ccc(OC(C)(C)C(=O)O)cc2)nn(Cc2cccc(OC)c2)c1=O`, the IC50 was 19 nM in assay [3] and 2000 nM in assay [4]. The same molecule yielded an EC50 in [2] of 31 nM.
On to `Cc1ccc(Cn2nc(CCCc3ccc(OC(C)(C)C(=O)O)cc3)nc2O)cc1` [LY-518674], for which the ED50 amounted to 0.3 mg/kg in the assay filed under Mus musculus [5] and 0.1 mg/kg in the assay listed under Mus musculus [9]. In assay [4], this molecule yielded an IC50 of 3800 nM. For the same molecule, the Increase in the assay filed under Mus musculus [6] stood at 210%.
In assay [3], `CC(C)(Oc1ccc(C(=O)c2ccc(Cl)cc2)cc1)C(=O)O` [FENOFIBRIC ACID] came in with an IC50 of 24000 nM. Besides, the NB result in assay [10] and in [12] was “inactive” throughout. It took 13000 nM to reach a half-maximal effect in [11] (EC50).
